Experimental data taken from patent US5863915A, “Substituted 4-arylbutyric acid derivatives as matrix metalloprotease” (Bayer Corporation, priority 1997, dated 1999).

Experiments:
[1] = tested on: MMP-3, MMP-9 and MMP-2; experiment: MMP profiling assay, overall comparison of the three MMPs (Table 5 data); format: biochemical, human; details: for MMP inhibition activity in words: substituent size on the 4-phenyl ring; for selectivity of activity among the MMP's, in words: MMP-2 and MMP-9 vs MMP-3
Text: MMP Microfluorometric Profiling Assay
IC50 Determination in Microfluorometric Assay
((Control values-Treated Values)/Control Values)×100

[2] = tested on: human colon tumor; details: given intraperitoneally; orthotopic model in nude mice; cited from earlier work
[3] = tested on: human ovarian carcinoma xenografts; details: mouse, in vivo; cited from earlier work

SMILES | MMP inhibition activity in words [1] | also measured
CCCCCCCCCCCCCCOc1ccc(C(=O)CC(CCN2C(=O)c3ccccc3C2=O)C(=O)O)cc1 (centres unmarked) [Compound F, 4-(4-tetradecyloxyphenyl)-4-oxo-2-(2-phthalimidoethyl)butyric acid] | activity is also low | 
COc1ccc(C(=O)CC(CCN2C(=O)c3ccccc3C2=O)C(=O)O)cc1 (centres unmarked) [Compound G, 4-(4-methoxyphenyl)-4-oxo-2-(2-phthalimidoethyl)butyric acid] | activities are low | 
CCCCCCOc1ccc(C(=O)CC(CCN2C(=O)c3ccccc3C2=O)C(=O)O)cc1 (centres unmarked) [Example 11, 4-(4-hexyloxyphenyl)-4-oxo-2-(2-phthalimidoethyl) butyric acid] |  | selectivity of activity among the MMP's, in words [1]: broad high activity
O=C(CC(CCN1C(=O)c2ccccc2C1=O)C(=O)O)c1ccccc1 (centres unmarked) [Compound D, 4-phenyl-4-oxo-2-(2-phthalimidoethyl)butyric acid] | activities are low | 
CCCCCCCOc1ccc(C(=O)CC(CCN2C(=O)c3ccccc3C2=O)C(=O)O)cc1 (centres unmarked) [Example 10, 4-(4-heptyloxyphenyl)4-oxo-2-(2-phthalimidoethyl) butyric acid] |  | selectivity of activity among the MMP's, in words [1]: broad high activity
CNC(=O)[C@H](Cc1ccccc1)NC(=O)[C@H](CC(C)C)[C@H](CSc1cccs1)C(=O)NO [batimastat] |  | human colon tumor growth and spread [2]: inhibits human colon tumor growth and spread; survival of mice bearing human ovarian carcinoma xenografts [3]: prolongs the survival of mice
O=C(CC(CCN1C(=O)c2ccccc2C1=O)C(=O)O)c1ccc(Br)cc1 (centres unmarked) [Compound B, 4-(4-bromophenyl)-4-oxo-2-(2-phthalimidoethyl) butyric acid] | activities are low | 
